Test results taken from patent US8946436B2, “Oxazolidinone compounds and their uses in preparation of antibiotics” (Sichuan Gooddoctor Pharmaceutical Group Co., Ltd., priority 2011, dated 2015).
Values after ≈ are worked out from the molar mass of the structure shown. Read-outs that look alike come from different tables or passages of the source.

Tests used:
HEK-293 = test: Cytotoxicity experiment (MTT), HEK-293; type: cell-based; conditions: Homo sapiens, HEK293, 48 h, HEK-293 normal cells, read-out: Inhibition ratio
Procedure: (§1) (1) Inoculating cells: Experimental cells in the growth of logarithmic phase were collected and suspended. The cell concentration of the suspension was adjusted so that they could be inoculated into the wells of 96-well micro plate at a density between 10^3-10^4 cells per well (200 μl per well). (2) Culturing cells: The cells were cultured at normal conditions for 3 days and then exposed to 50 uM compounds for test. (3) Coloring reaction: At 24 h, 48 h and 72 h after the cells being exposed to the compounds for test, 200 μl culture medium containing 20 μl MTT solution (5 mg/ml) was added into each well, and the well was further incubated at 37° C. for 2 hours to terminate the incubation. After the incubation, the supernatants were removed from the wells. In the event there were suspended cells in the wells, centrifugation should be performed before removal of supernatant from the wells. After the removal, 150 μl DMSO was added to each well and mixed thoroughly by agitation for 10 mins to fully dissolve crystals. (4) Ascertainment of colorimetry: The absorbance value at 490 nm of each well was determined by Enzyme-linked immunosorbent Monitor. The growth curve of the experimental cells was plotted by taking time as x-coordinate and absorbance value as y-coordinate. In addition, an inhibition ratio could be calculated in accordance with the following formula: Inhibition ratio=(absorbance value of control group-absorbance value of administering group)/absorbance value of control group×100%.

S. pneumoniae = test: In vitro antibacterial activity (MIC), S. pneumoniae; type: cell-based; conditions: Streptococcus pneumoniae
Procedure: (§2) The test strain was inoculated into the liquid medium and cultured at 37° C. for 16-18 h. The culture liquid and MH medium were put into two blank wells of a 96-well plate, respectively. Then, the absorptions thereof were measured by a Microplate reader. The difference between the absorption values of the culture liquid and MH medium is the adsorption of the bacteria. The concentration of the culture liquid can be calculated according to the formula of 1OD=50 million CFU/mL. The culture liquid was diluted with the MH bouillon culture medium to 5000 CFU/mL for further use.
(§3) Compounds 12a, 13 and 14 were dissolved in DMSO to 1 mg/mL, and then filtered with a 0.22 μm filter to obtain the compound solutions. And then they were gradually diluted to a desired concentration (10× final concentration) with the liquid medium, so as to obtain a series of dilutions. The final concentration grade of the dilutions of each tested compound consists of 14 concentrations, which includes: 0.03125 μg/mL, […], 0.125 μg/mL, 0.25 μg/mL, […], 1 μg/mL, 2 μg/mL, 4 μg/mL, 8 μg/mL, 16 μg/mL, 32 μg/mL, 64 μg/mL, 128 μg/mL and 256 μg/mL.
(§4) 10 μL of each of the compound dilutions above was added into a well of a 96-well plate. 90 μL of the culture liquid (5000 CFU/mL) was added into each of the wells, respectively, mixed with the dilutions to render the tested compound concentration to the final concentration. The resulted mixture was incubated at 37° C. for 16-18 h, and then the OD630 thereof was measured. A culture liquid free of the tested compounds is used as a blank control, and three parallel tests with the same concentration of each compound were performed. The minimum inhibitory concentration (MIC) of each compound on the standard strain of Staphylococcus Aureus and other test strains was determined. Specifically, among the culture liquid contained in the wells of the micro-plate, the first three lowest concentrations under which growth of the test strains could be observed were chose for further evaluation of the MIC. A culture liquid free of tested compounds was used as a blank control. Each of the culture liquids was homogenized independently, and then was diluted with a sterile saline. Each of the diluted culture liquids was plated onto a MH bouillon plate and incubated at 37° C. for 20 h in incubator. After the incubation, the number of the colonies on each plate was counted. As compared with the blank control group, the lowest concentration of each of the test compound groups, at which 80% reduction in the colony number of the strains was achieved, was recorded as the MIC.

E. faecalis = test: In vitro antibacterial activity (MIC), E. faecalis; type: cell-based; conditions: Enterococcus faecalis
Procedure: as §2, §3, §4

L-02 = test: Cytotoxicity experiment (MTT), L-02; type: cell-based; conditions: Homo sapiens, L02, 48 h, L-02 normal cells, read-out: Inhibition ratio
Procedure: as §1

S. agalactiae = test: In vitro antibacterial activity (MIC), S. agalactiae; type: cell-based; conditions: Streptococcus agalactiae
Procedure: as §2, §3, §4

S. aureus = test: In vitro antibacterial activity (MIC), S. aureus; type: cell-based, Staphylococcus Aureus; conditions: Staphylococcus aureus
Procedure: Strains: strain ATCC25923 is available from the American Type Culture Collection, and is used as a standard strain of Staphylococcus Aureus;
Liquid medium: MH bouillon culture medium, a product of BD Company, United States of American;
Tested Compounds: compounds 12a, 13 and 14 prepared according to the methods above, and Linezolid purchased from Pfizer.
as §2, §3, §4

[1] = S. pneumoniae (10 strains), read-out: MIC
[2] = E. faecalis (7 strains), read-out: MIC
[3] = S. agalactiae (5 strains), read-out: MIC
[4] = S. aureus (12 strains), read-out: MIC

Structure (SMILES)	cytotoxicity at 50 µM (HEK-293) [%]	MIC (S. pneumoniae; [1]) [µg/mL]	MIC (E. faecalis; [2]) [µg/mL]	cytotoxicity at 50 µM (L-02) [%]	MIC (S. agalactiae; [3]) [µg/mL]	MIC (S. aureus; [4]) [µg/mL]	melting point [°C]	MIC (S. pneumoniae) [µg/mL]	MIC (E. faecalis) [µg/mL]	MIC (S. agalactiae) [µg/mL]	MIC (S. aureus) [µg/mL]
CC(=O)NC[C@H]1CN(c2ccc(-n3ccc(-c4ccccn4)n3)c(F)c2)C(=O)O1 [Compound 12a, (S)-N-((3-(3-fluoro-4-(3-(pyridin-2-yl)-1H-pyrazol-1-yl)phenyl)-2-oxooxazolidin-5-yl)methyl)acetamide]	5.5	1 to 16 (≈ 2.53 to 40.5 µM)	2 to 16 (≈ 5.06 to 40.5 µM)	20	2 to 16 (≈ 5.06 to 40.5 µM)	2 to 16 (≈ 5.06 to 40.5 µM)	–	–	–	–	–
CC(=O)NC[C@H]1CN(c2ccc(-n3cc(-c4ccncc4)cn3)c(F)c2)C(=O)O1 [Compound 13a, (S)-N-((3-(3-fluoro-4-(4-(pyridin-4-yl)-1H-pyrazol-1-yl)phenyl)-2-oxooxazolidin-5-yl)methyl)acetamide]	11	0.125 to 16 (≈ 0.316 to 40.5 µM)	0.25 to 16 (≈ 0.632 to 40.5 µM)	4	0.25 to 16 (≈ 0.632 to 40.5 µM)	0.5 to 16 (≈ 1.26 to 40.5 µM)	–	–	–	–	–
CC(=O)NC[C@H]1CN(c2ccc(-n3cc(-c4ccc(C)cc4)cn3)c(F)c2)C(=O)O1 [Compound 13b, (S)-N-((3-(3-fluoro-4-(4-(p-tolyl)-1H-pyrazol-1-yl)phenyl)-2-oxooxazolidin-5-yl)methyl)acetamide]	12	0.5 to 8 (≈ 1.22 to 19.6 µM)	0.5 to 8 (≈ 1.22 to 19.6 µM)	5.58	0.25 to 8 (≈ 0.612 to 19.6 µM)	1 to 8 (≈ 2.45 to 19.6 µM)	221.5 to 222.8	–	–	–	–
COc1ccc(-c2cnn(-c3ccc(N4C[C@H](CNC(C)=O)OC4=O)cc3F)c2)cc1 [Compound 13c, (S)-N-((3-(3-fluoro-4-(4-(4-methoxyphenyl)-1H-pyrazol-1-yl)phenyl)-2-oxooxazolidin-5-yl)methyl) acetamide]	32	0.5 to 8 (≈ 1.18 to 18.8 µM)	0.25 to 8 (≈ 0.589 to 18.8 µM)	10.4	0.5 to 8 (≈ 1.18 to 18.8 µM)	1 to 8 (≈ 2.36 to 18.8 µM)	226.1 to 227.8	–	–	–	–
CC(=O)NC[C@H]1CN(c2ccc(-n3cc(-c4ccc(Cl)cc4)cn3)c(F)c2)C(=O)O1 [Compound 13d, (S)-N-((3-(3-fluoro-4-(4-(4-chlorophenyl)-1H-pyrazol-1-yl)phenyl)-2-oxooxazolidin-5-yl)methyl)acetamide]	21	–	–	39.3	–	–	237.5 to 238.2	0.25 to 4 (≈ 0.583 to 9.33 µM)	0.5 to 8 (≈ 1.17 to 18.7 µM)	0.5 to 8 (≈ 1.17 to 18.7 µM)	1 to 4 (≈ 2.33 to 9.33 µM)
CC(=O)NC[C@H]1CN(c2ccc(-n3cc(-c4ccc(C(=O)O)cn4)cn3)c(F)c2)C(=O)O1 [Compound 13e, (S)-N-((3-(3-fluoro-4-(4-(5-carboxyl-pyridin-2-yl)-1H-pyrazol-1-yl)phenyl)-2-oxooxazolidin-5-yl)methyl) acetamide]	36.3	0.5 to 8 (≈ 1.14 to 18.2 µM)	1 to 8 (≈ 2.28 to 18.2 µM)	38	0.5 to 4 (≈ 1.14 to 9.1 µM)	1 to 8 (≈ 2.28 to 18.2 µM)	279.6 to 280.2	–	–	–	–
CC(=O)NC[C@H]1CN(c2ccc(-n3nccc3-c3cccnc3)c(F)c2)C(=O)O1 [Compound 14a, (S)-N-((3-(3-fluoro-4-(5-(pyridin-3-yl)-1H-pyrazol-1-yl)phenyl)-2-oxooxazolidin-5-yl)methyl)acetamide]	14	1 to 16 (≈ 2.53 to 40.5 µM)	2 to 16 (≈ 5.06 to 40.5 µM)	7.51	2 to 16 (≈ 5.06 to 40.5 µM)	2 to 16 (≈ 5.06 to 40.5 µM)	–	–	–	–	–
CC(=O)NC[C@H]1CN(c2ccc(-n3nccc3-c3cccc(Br)n3)c(F)c2)C(=O)O1 [Compound 14b, (S)-N-((3-(3-fluoro-4-(5-(6-bromopyridin-2-yl)-1H-pyrazol-1-yl)phenyl)-2-oxooxazolidin-5-yl)methyl) acetamide]	19.5	2 to 32 (≈ 4.22 to 67.5 µM)	4 to 32 (≈ 8.43 to 67.5 µM)	21	4 to 32 (≈ 8.43 to 67.5 µM)	4 to 32 (≈ 8.43 to 67.5 µM)	90.5 to 92.3	–	–	–	–
CC(=O)NC[C@H]1CN(c2ccc(-n3nccc3-c3ccc(C)cc3)c(F)c2)C(=O)O1 [Compound 14c, (S)-N-((3-(3-fluoro-4-(5-(p-tolyl)-1H-pyrazol-1-yl)phenyl)-2-oxooxazolidin-5-yl)methyl)acetamide]	40	2 to 16 (≈ 4.9 to 39.2 µM)	2 to 32 (≈ 4.9 to 78.3 µM)	39	2 to 32 (≈ 4.9 to 78.3 µM)	4 to 32 (≈ 9.79 to 78.3 µM)	89.5 to 91.9	–	–	–	–
CC(=O)NC[C@H]1CN(c2ccc(-n3nccc3-c3ccc(Br)cc3)c(F)c2)C(=O)O1 [Compound 14d, (S)-N-((3-(3-fluoro-4-(5-(4-bromophenyl)-1H-pyrazol-1-yl)phenyl)-2-oxooxazolidin-5-yl)methyl)acetamide]	55	–	–	39	–	–	96.8 to 98.8	1 to 8 (≈ 2.11 to 16.9 µM)	2 to 16 (≈ 4.23 to 33.8 µM)	2 to 16 (≈ 4.23 to 33.8 µM)	2 to 16 (≈ 4.23 to 33.8 µM)
CC(=O)NC[C@H]1CN(c2ccc(-n3nccc3-c3ccccn3)c(F)c2)C(=O)O1 [Compound 14e, (S)-N-((3-(3-fluoro-4-(5-(pyridin-2-yl)-1H-pyrazol-1-yl)phenyl)-2-oxooxazolidin-5-yl)methyl)acetamide]	47	0.125 to 16 (≈ 0.316 to 40.5 µM)	0.25 to 16 (≈ 0.632 to 40.5 µM)	39	0.25 to 16 (≈ 0.632 to 40.5 µM)	0.5 to 16 (≈ 1.26 to 40.5 µM)	79.9 to 82.1	–	–	–	–
CSc1ccc(-c2ccnn2-c2ccc(N3C[C@H](CNC(C)=O)OC3=O)cc2F)cc1 [Compound 14f, (S)-N-((3-(3-fluoro-4-(5-(4-(methylthio)phenyl)-1H-pyrazol-1-yl)phenyl)-2-oxooxazolidin-5-yl)methyl) acetamide]	40	0.5 to 8 (≈ 1.14 to 18.2 µM)	0.5 to 8 (≈ 1.14 to 18.2 µM)	29	0.25 to 8 (≈ 0.568 to 18.2 µM)	1 to 8 (≈ 2.27 to 18.2 µM)	175.4 to 177.6	–	–	–	–
CC(=O)NC[C@H]1CN(c2ccc(-n3nccc3-c3ccc(Br)cn3)c(F)c2)C(=O)O1 [Compound 14g, (S)-N-((3-(3-fluoro-4-(5-(5-bromopyridin-2-yl)-1H-pyrazol-1-yl)phenyl)-2-oxooxazolidin-5-yl)methyl) acetamide]	10	0.5 to 8 (≈ 1.05 to 16.9 µM)	0.25 to 8 (≈ 0.527 to 16.9 µM)	5.9	0.5 to 8 (≈ 1.05 to 16.9 µM)	1 to 8 (≈ 2.11 to 16.9 µM)	92.7 to 95.4	–	–	–	–
CC(=O)NC[C@H]1CN(c2ccc(-n3nccc3-c3ccncc3)c(F)c2)C(=O)O1 [Compound 14h, (S)-N-((3-(3-fluoro-4-(5-(pyridin-4-yl)-1H-pyrazol-1-yl)phenyl)-2-oxooxazolidin-5-yl)methyl)acetamide]	5	0.25 to 4 (≈ 0.632 to 10.1 µM)	0.5 to 8 (≈ 1.26 to 20.2 µM)	14	0.5 to 8 (≈ 1.26 to 20.2 µM)	1 to 4 (≈ 2.53 to 10.1 µM)	74.5 to 76.3	–	–	–	–
